ChEMBL document CHEMBL6096693, “Fragment-to-Lead Medicinal Chemistry Publications in 2023” (J Med Chem, 2025)

Tests used:
[1] = biological target: Epidermal growth factor receptor (Homo sapiens, UniProt P00533); assay: Inhibition of EGFR (unknown origin)
[2] = Binding affinity to Interleukin-1beta (unknown origin) assessed as dissociation constant by SPR analysis; parameters: species or system Homo sapiens
[3] = biological target: Bifunctional dihydrofolate reductase-thymidylate synthase (Plasmodium falciparum K1, UniProt P13922); assay: Binding affinity to Plasmodium falciparum DHFR assessed as inhibition constant
[4] = biological target: Bromodomain-containing protein 4 (Homo sapiens, UniProt O60885); assay: Inhibition of BRD4 BD1 (unknown origin) using biotinylated tetra-acetylated H4 peptide SGRG-K(Ac)-GG-K(Ac)-GLG-K(Ac)-GGA-K(Ac)-RHRK-Biotin as substrate incubated for 60 mins by TR-FRET analysis
[5] = Inhibition of SARS-CoV2 Mac1 extracted from Escherichia coli Rosetta2 (DE3); parameters: species or system Severe acute respiratory syndrome coronavirus 2
[6] = biological target: T1, Coagulation factor XII (Homo sapiens, UniProt P00748); assay: Inhibition of human FXIIa (unknown origin)
T1 sequence (P00748 whole entry): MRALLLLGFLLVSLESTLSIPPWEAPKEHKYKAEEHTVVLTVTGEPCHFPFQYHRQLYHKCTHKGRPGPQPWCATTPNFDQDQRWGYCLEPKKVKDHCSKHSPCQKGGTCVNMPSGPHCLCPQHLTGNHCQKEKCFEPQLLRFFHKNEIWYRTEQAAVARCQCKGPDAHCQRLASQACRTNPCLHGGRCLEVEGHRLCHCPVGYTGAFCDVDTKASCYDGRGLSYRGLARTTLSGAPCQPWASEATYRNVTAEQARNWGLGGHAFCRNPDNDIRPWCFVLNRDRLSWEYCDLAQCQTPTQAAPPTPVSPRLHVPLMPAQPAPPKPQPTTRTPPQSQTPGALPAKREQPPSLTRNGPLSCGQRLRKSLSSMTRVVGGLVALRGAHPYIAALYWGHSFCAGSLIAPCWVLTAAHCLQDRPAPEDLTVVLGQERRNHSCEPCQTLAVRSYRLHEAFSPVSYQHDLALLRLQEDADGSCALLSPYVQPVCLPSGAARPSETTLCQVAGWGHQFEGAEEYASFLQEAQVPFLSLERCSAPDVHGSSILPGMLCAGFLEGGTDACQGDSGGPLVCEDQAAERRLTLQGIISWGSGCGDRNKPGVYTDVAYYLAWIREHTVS

[7] = biological target: T2, ATPase family AAA domain-containing protein 2 (Homo sapiens, UniProt Q6PL18); assay: Inhibition of recombinant ATAD2 bromodomain (unknown origin) by TR-FRET assay
T2 sequence (Q6PL18 whole entry): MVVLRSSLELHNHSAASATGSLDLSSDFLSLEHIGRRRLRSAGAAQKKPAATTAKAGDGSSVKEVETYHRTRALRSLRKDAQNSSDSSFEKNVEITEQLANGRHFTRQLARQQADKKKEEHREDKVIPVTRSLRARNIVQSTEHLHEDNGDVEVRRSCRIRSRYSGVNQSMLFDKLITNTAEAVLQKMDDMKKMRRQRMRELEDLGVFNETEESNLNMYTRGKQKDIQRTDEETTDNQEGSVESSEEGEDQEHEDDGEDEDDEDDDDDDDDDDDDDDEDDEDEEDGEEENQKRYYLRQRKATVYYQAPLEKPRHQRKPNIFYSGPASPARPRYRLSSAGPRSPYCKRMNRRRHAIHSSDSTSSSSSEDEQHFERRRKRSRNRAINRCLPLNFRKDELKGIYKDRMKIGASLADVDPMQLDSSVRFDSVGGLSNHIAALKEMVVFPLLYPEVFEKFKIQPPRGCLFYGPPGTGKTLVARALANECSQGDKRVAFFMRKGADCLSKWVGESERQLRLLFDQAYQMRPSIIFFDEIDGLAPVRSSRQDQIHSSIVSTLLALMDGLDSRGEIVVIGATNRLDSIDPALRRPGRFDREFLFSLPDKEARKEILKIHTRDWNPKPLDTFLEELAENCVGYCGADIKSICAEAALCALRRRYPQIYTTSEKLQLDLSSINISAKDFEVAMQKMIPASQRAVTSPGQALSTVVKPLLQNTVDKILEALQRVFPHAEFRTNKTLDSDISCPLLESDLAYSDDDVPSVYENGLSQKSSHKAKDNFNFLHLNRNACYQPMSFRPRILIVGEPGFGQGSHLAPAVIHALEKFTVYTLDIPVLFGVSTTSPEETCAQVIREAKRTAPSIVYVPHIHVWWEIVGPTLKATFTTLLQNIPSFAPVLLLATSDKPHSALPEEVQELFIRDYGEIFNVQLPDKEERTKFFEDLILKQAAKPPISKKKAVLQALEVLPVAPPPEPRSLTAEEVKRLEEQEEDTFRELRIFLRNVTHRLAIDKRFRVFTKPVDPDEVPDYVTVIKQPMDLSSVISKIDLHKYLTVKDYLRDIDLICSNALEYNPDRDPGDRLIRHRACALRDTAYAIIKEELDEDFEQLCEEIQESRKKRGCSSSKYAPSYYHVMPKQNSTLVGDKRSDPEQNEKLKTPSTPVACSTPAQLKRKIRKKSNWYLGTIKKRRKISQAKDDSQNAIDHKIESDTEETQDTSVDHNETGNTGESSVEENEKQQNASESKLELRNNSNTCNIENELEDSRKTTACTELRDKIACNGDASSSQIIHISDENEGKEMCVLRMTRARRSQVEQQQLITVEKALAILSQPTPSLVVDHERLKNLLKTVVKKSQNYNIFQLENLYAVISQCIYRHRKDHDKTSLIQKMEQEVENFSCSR

Sequence of Epidermal growth factor receptor (P00533 whole entry): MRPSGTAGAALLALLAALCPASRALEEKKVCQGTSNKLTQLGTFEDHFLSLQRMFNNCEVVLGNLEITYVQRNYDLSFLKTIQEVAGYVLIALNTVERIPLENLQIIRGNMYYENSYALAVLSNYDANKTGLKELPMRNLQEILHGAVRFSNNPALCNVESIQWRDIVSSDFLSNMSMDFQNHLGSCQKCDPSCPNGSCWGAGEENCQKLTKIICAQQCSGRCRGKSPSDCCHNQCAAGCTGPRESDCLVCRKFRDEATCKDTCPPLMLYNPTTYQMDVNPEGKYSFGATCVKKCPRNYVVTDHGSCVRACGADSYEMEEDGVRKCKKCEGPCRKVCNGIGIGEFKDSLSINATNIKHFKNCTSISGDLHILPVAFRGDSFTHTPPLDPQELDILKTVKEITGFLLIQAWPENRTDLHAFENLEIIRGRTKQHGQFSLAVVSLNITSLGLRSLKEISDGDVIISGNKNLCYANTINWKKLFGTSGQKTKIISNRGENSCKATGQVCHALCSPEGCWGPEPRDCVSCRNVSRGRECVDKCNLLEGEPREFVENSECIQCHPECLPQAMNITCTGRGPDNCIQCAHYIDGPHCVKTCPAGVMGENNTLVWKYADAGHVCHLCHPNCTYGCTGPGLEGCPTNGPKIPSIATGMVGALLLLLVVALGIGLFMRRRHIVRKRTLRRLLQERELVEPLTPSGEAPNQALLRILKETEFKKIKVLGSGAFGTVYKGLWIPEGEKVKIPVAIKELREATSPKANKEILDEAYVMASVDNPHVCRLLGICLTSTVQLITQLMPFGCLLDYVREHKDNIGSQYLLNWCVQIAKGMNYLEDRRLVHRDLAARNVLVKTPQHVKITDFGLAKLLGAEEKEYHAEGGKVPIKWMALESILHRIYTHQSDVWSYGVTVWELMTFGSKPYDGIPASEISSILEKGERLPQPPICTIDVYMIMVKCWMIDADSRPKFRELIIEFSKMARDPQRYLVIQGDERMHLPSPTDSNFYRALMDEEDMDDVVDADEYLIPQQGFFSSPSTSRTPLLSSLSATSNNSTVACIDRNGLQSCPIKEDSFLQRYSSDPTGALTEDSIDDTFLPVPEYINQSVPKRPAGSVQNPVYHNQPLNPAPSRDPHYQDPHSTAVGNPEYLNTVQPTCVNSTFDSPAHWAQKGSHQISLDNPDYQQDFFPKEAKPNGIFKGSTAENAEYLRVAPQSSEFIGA
Sequence of Bifunctional dihydrofolate reductase-thymidylate synthase (P13922 whole entry): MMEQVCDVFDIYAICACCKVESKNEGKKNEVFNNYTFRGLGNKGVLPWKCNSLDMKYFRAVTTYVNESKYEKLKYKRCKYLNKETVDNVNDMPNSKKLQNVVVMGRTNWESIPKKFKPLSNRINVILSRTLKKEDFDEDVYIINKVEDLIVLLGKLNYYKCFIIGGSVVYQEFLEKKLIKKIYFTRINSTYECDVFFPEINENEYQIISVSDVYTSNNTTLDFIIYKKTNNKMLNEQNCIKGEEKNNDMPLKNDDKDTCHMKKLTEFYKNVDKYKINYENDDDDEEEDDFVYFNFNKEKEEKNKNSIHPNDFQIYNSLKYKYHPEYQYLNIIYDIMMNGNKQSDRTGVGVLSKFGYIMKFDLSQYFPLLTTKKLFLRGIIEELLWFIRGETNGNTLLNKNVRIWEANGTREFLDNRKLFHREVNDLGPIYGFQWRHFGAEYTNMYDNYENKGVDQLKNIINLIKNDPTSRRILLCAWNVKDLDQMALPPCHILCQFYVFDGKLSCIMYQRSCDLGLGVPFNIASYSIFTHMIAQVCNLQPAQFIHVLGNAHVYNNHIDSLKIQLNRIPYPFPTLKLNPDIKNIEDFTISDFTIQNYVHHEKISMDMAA

SMILES: C=CC(=O)Nc1ccccn1
- IC50 [1]: > 500 µM

SMILES: O=C1Nc2cc(C(F)(F)F)ccc2C1(O)c1cc(Cl)ccc1O (configuration not stated)
- Kd [2]: 520 µM

SMILES: O=C(O)c1cccc(-c2ccncc2)c1
- Ki [3]: > 500 µM

SMILES: O=C(O)c1cc(-c2c[nH]c3ccccc23)on1
- IC50 [4]: 97 µM

SMILES: C=CC(=O)Nc1cc(-c2cn(C)c3ccccc23)ncn1
- IC50 [1]: 0.9 µM

SMILES: Cc1ccc2c(c1)NC(=O)[C@@]2(c1cn[nH]c1)c1cc(-c2ccc(C(=O)O)cc2C(=O)O)ccc1O
- Kd [2]: 1.1 µM

SMILES: Cn1cc(-c2onc(C(=O)O)c2CO)c2ccccc21
- IC50 [4]: 0.91 µM

SMILES: O=C(Nc1ccc(C(=O)N[C@H]2c3cccc(O)c3C[C@H]2C(=O)O)cc1)NC1CC1
- IC50 [5]: > 180 µM
- IC50 [6]: 390 µM

SMILES: Cc1cc(C)on1
- IC50 [4]: 84 µM

SMILES: CCNC(=O)[C@H](C)NC(=O)Cn1cc(-c2c(C)noc2C)cn1
- IC50 [4]: 0.05 µM

SMILES: Cn1c(=O)c2[nH]cnc2n(C)c1=O [THEOPHYLLINE ANHYDROUS]
- IC50 [7]: 320 µM
